Measurements from the NIST ThermoML archive (doi:10.1021/acs.jced.5b01082).
Numbers after ± are expanded uncertainties.

Columns and labels:
[1] = wn = mass fraction of the nth substance listed; details: 100 kPa, Liquid; for viscosity: Cone and plate viscometry; for mass density: Vibrating tube method
[2] = 101.33 kPa, Liquid; for viscosity: Cone and plate viscometry; for mass density: Vibrating tube method

Row | SMILES | viscosity ([1]; 298.15 K, w2 = 0.151) | mass density ([1]; 298.15 K, w2 = 0.151) | viscosity ([1]; 310.15 K, w2 = 0.146) | mass density ([1]; 310.15 K, w2 = 0.146) | viscosity ([1]; 318.15 K, w2 = 0.142) | mass density ([1]; 318.15 K, w2 = 0.142) | viscosity ([2]; 298.15 K) | mass density ([2]; 298.15 K) | viscosity ([2]; 310.15 K) | mass density ([2]; 310.15 K) | viscosity ([2]; 318.15 K) | mass density ([2]; 318.15 K)
1 | CC(CC(C)(C)C)CP(=O)([O-])CC(C)CC(C)(C)C.CCCCCCCCCCCCCC[P+](CCCCCC)(CCCCCC)CCCCCC + O | 142.4 ± 15 mPa·s | 909.07 ± 9.6 kg/m3 | 79.66 ± 8.2 mPa·s | 900.11 ± 9.5 kg/m3 | 55.58 ± 5.7 mPa·s | 893.78 ± 9.4 kg/m3 | – | – | – | – | – | –
2 | CC(CC(C)(C)C)CP(=O)([O-])CC(C)CC(C)(C)C.CCCCCCCCCCCCCC[P+](CCCCCC)(CCCCCC)CCCCCC | – | – | – | – | – | – | 999.6 ± 120 mPa·s | 884.09 ± 9.7 kg/m3 | 482.6 ± 54 mPa·s | 876.93 ± 9.6 kg/m3 | 316.7 ± 35 mPa·s | 872.2 ± 9.5 kg/m3
